Type: physicochemical
Text: Desferrioxamine B is a commercially available iron chelating drug, desferal®. […] (1980). […] 89, p.

Structure (SMILES) | selectivity: difference between the log stability constants
O=C(NCCCCN(CCCNC(=O)c1cc(S(=O)(=O)O)cc(O)c1O)C(=O)c1cc(S(=O)(=O)O)cc(O)c1O)c1cc(S(=O)(=O)O)cc(O)c1O [3,4-LICAMS] | 26.8
O=C(O)CN(CCN(CC(=O)O)CC(=O)O)CCN(CC(=O)O)CC(=O)O [DTPA, diethylenetriaminepentaacetic acid] | 17.2

Source: US7311933B2, “Packaging material for inhibiting microbial growth” (Eastman Kodak Company, priority 2004, dated 2007)
